The text below walks through data of patent publication US7531320B2, “Modulation of β-catenin/TCF-activated transcription” (priority 2003, dated 2009).

One test concerns the target T1, full-length mouse CBP (Mus musculus, UniProt P45481).
T1 construct: vectors expressing full-length Xenopus laevis β-catenin (2.2 μg) or full-length mouse CBP (1.1 μg); expressed in transfected cells; host or cells: SW480
Put plainly: 14C-labeled COMPOUND 1 incorporation into SW480 nuclear lysates transfected with CBP. In kind it is binding. The following applies: 100 μM and 200 μM cold COMPOUND 1, dose dependent. On the procedure: FIG. 1. COMPOUND 1 inhibits β-catenin/TCF transcription. • A(i) and A(ii). Structures of COMPOUND 1, COMPOUND 2, COMPOUND 3, COMPOUND 4, and COMPOUND 5. • B(i) and B(ii). […] SW480 cells (10^5), (FIG. 1B(i)), were transfected with β-catenin/TCF luciferase construct. Cells were treated with COMPOUND 1 (1-64 μM). 24 hours post treatment lysates were prepared and subjected to dual luciferase assay. The data is represented in different form in FIG. 1B(ii). • C. COMPOUND 1 has no effect on NFAT reporter construct. Stably transfected Jurkat cells, right panel, with an NFAT reporter construct, were stimulated with PMA (10 ng/ml)/lonomycin (1 μg/ml), and treated with COMPOUND 1 (0.781-50 μM). 24 hours post treatment lysates were prepared and subjected to dual luciferase assay. All experiments were performed in duplicate and the values plotted as means +/−standard deviation. • D. CBP is the molecular target of COMPOUND 1. […] The lysates were desalted using G-25 1 cc columns (Pharmacia) to remove the unbound ^14C-labeled-COMPOUND 1, and ^14C-labeled-COMPOUND 1 incorporation was measured.
A series of further investigations were performed to further validate that COMPOUND 1 binds CBP. […] Cell lysates were then desalted using G-25 columns to remove the unbound ^14C-labeled COMPOUND 1 and the incorporation of radioactivity was measured.

For a further test, the system named is c-myc promoter. The test can be described thus: ChIP assay, c-myc promoter in SW480 cells. In kind it is cell-based, human. Conditions: 25 μM, 8 hours. How it is done: FIG. 5. COMPOUND 1 inhibits the expression of cyclin D1. • A. Cyclin D1 levels are decreased with COMPOUND 1 treatment. Western blot analysis was performed on 25 μg of SW480 whole cell lysates treated for 4, 8, or 24 hours with either 25 μM of COMPOUND 1 or control (0.5% DMSO). Immunoblotting was performed using anti-Cyclin D1 antibodies (Santa Cruz Biotechnology Inc.). • B. In vivo occupancy of cyclin D1 and c-myc promoters by CBP and p300. […] ChIP assays were performed on promoter of c-myc from SW480 cells which was treated for 8 hours with COMPOUND 1 (25 μM) or control (0.5% DMSO). CBP (AC-26, a generous gift from Dr. David Livingston, Harvard University, Boston, Mass.) or p300 (C-20, Santa Cruz Biotechnology Inc.) specific antibodies were used to evaluate the promoter occupancy by CBP or p300 in presence of COMPOUND 1 or control (DMSO) treatment.
Formaldehyde cross-linking and chromatin immunoprecipitation assays of SW480 cells were performed as described previously (Barlev et al., “Acetylation of p53 activates transcription through recruitment of coactivators/histone acetyltransferases,” Mol. Cell 8:1243-54 (2001); El-Osta et al., “Analysis of chromatin-immunopurified MeCP2-associated fragments,” Biochem. Biophys. Res. Commun. 289:733-37 (2001); Shang et al., “Formation of the androgen receptor transcription Complex,” Mol. Cell 9:601-10 (2002)). […]

T1 sequence (P45481 whole entry): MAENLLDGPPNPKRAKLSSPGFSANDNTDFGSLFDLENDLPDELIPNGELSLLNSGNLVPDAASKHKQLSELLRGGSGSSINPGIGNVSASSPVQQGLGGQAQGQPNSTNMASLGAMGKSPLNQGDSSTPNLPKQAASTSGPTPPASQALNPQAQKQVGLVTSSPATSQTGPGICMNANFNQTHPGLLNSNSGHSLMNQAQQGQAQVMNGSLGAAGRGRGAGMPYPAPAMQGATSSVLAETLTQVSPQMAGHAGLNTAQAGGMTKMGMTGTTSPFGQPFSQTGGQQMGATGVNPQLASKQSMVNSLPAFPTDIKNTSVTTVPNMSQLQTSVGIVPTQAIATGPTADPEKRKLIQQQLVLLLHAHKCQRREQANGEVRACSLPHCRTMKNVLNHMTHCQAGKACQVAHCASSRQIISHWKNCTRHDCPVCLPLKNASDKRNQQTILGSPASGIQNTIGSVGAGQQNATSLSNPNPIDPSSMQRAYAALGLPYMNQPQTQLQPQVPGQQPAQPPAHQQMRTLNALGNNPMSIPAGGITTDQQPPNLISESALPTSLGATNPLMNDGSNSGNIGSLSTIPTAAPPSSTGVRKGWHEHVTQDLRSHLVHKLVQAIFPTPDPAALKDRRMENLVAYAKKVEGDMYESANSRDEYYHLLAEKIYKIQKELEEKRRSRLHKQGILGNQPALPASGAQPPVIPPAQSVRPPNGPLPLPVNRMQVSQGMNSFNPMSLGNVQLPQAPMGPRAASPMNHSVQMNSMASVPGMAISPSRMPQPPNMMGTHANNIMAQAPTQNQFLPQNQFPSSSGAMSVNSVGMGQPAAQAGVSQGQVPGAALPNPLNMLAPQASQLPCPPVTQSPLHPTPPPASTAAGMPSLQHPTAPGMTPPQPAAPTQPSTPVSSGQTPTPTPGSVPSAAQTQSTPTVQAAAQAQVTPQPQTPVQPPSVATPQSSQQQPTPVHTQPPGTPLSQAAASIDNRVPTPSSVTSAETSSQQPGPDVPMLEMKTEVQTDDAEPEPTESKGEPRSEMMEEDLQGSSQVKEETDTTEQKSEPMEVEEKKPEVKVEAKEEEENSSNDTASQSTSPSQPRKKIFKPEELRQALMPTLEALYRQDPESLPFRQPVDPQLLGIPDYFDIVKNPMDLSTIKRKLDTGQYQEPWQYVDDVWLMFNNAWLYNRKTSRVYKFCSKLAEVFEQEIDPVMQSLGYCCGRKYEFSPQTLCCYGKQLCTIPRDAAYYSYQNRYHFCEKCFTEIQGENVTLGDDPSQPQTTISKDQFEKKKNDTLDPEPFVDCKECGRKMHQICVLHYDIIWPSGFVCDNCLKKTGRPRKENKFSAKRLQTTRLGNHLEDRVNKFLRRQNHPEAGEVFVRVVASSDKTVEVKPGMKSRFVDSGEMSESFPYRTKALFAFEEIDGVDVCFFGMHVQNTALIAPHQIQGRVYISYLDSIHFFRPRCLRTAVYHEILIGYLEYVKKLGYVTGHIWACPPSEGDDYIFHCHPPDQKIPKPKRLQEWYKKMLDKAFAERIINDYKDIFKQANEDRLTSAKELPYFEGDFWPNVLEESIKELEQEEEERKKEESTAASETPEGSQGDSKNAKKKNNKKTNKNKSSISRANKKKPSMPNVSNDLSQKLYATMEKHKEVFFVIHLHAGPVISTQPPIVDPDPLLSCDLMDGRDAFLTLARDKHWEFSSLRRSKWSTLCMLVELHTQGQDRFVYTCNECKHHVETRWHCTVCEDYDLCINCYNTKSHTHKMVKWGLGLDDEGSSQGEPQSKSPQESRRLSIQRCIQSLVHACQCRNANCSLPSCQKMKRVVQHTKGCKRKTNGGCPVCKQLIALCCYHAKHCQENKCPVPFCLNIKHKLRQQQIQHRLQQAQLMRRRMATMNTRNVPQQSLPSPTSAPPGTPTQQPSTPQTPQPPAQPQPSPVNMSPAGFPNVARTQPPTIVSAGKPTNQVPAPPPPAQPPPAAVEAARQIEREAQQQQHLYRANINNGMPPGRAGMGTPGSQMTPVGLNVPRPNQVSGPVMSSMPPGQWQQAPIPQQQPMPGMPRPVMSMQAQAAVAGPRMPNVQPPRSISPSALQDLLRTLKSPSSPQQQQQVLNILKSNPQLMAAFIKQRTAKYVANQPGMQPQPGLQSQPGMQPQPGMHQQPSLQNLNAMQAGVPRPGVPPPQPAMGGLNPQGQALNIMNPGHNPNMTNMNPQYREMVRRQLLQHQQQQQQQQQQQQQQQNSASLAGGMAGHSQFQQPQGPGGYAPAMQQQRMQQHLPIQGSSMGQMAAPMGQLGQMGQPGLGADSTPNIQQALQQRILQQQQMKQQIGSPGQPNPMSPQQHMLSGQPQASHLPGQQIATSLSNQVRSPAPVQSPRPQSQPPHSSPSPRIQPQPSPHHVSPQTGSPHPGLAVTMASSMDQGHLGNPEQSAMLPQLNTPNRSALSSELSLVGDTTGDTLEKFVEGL

`O=C1C(Cc2ccc(O)cc2)N2C(=O)CCN(C(=O)NCc3ccccc3)C2CN1Cc1cccc2ccccc12` (stereo not drawn) [COMPOUND 1]: the “Competition of 14C-labeled COMPOUND 1 incorporation by cold COMPOUND 1” value on full-length mouse CBP was “competed away”. Moreover, in the test with c-myc promoter, the “Association of CBP with the c-myc promoter” value was “completely and selectively blocks”; the “Level of p300 associated with the c-myc promoter” value is “increased”.
